Laboratory results published in ChEMBL document CHEMBL1201862, “PubChem BioAssay data set” (2004).
Values belong to the compound of their own block, whether it stands above or below them. Activity calls are given as the source filed them.

Assays:
HEK293 = assay: inhibitors of LMP1-driven NF-kB reporter, dose response, cell-based, HEK293, luciferase, cherry-pick (AID 588343); type: functional; conditions: Homo sapiens
[1] = Luminescence Cell-Based Dose Confirmation HTS to Identify Inhibitors of Platelet Dense Granule Release. [Related pubchem assays: 1663 (Primary HTS), 1678 (Summary of Project)]; type: functional
BJ [2] = assay: cells; type: functional, cell-based; conditions: Homo sapiens
BJ [3] = assay: cytotoxicity toward BJ-TERT-LT-ST fibroblasts, dose response, cell-based, RAS-independent, luminescence (AID 1935); type: functional; conditions: Homo sapiens;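 further: BJ fibroblasts immortalized with TERT plus LT and ST oncogenes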
BJ [4] = assay: cytotoxicity toward BJ-TERT fibroblasts, dose response, cell-based, RAS-independent, luminescence (AID 1933); type: functional; conditions: Homo sapiens
[5] = cytotoxicity toward DRD oncogenic fibroblasts, dose response, cell-based, non-viral oncogenic, luminescence (AID 1934); type: functional; conditions: Homo sapiens
[6] = biological target: Luciferin 4-monooxygenase (Photinus pyralis, UniProt P08659); assay: firefly luciferase enzyme inhibitors, dose response, biochemical, luminescence (AID 1891)
Cytochrome P450 2C9 = Cytochrome P450 2C9 (Homo sapiens, UniProt P11712)
Cytochrome P450 2C19 = Cytochrome P450 2C19 (Homo sapiens, UniProt P33261); assay: Cytochrome panel assay with activity outcomes. Panel member name: p450-cyp2c19 Compounds with AC50 equal or less than 10 uM are considered active; type: functional
Cytochrome P450 3A4 = Cytochrome P450 3A4 (Homo sapiens, UniProt P08684);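 further: CYP3A4 tested as one member of a cytochrome P450 panel screen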
Cytochrome P450 1A2 = biological target: T1, Cytochrome P450 1A2 (Homo sapiens, UniProt P05177);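 further: PubChem cytochrome P450 panel assay, CYP1A2 panel member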
T1 sequence (P05177 whole entry): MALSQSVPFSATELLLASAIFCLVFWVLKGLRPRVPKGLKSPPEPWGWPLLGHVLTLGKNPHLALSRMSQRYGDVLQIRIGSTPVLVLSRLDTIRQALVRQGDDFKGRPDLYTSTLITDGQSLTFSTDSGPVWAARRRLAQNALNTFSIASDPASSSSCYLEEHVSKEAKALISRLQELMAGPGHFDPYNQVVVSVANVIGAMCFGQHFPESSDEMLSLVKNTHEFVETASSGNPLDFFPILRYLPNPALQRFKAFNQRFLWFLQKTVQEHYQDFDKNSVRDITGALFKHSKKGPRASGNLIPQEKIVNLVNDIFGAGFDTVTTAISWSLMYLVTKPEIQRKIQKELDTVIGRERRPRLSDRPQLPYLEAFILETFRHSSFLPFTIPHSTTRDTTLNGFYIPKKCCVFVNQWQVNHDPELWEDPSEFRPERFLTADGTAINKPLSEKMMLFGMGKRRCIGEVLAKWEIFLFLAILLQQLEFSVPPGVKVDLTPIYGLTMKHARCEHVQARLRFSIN

H9c2 = assay: cells; type: functional, cell-based; conditions: Rattus norvegicus, H9c2, Myocardium;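 further: confirmatory concentration-response retest of ultra-high-throughput screening hits for modulation of myocardial damage; cell death induced by hydrogen peroxide oxidative stress; compound pretreatment for 60 min then peroxide exposure for 2 h; potency is for protecting the cells against peroxide damage rather than for killing them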

Sequence of Cytochrome P450 2C9 (P11712 whole entry): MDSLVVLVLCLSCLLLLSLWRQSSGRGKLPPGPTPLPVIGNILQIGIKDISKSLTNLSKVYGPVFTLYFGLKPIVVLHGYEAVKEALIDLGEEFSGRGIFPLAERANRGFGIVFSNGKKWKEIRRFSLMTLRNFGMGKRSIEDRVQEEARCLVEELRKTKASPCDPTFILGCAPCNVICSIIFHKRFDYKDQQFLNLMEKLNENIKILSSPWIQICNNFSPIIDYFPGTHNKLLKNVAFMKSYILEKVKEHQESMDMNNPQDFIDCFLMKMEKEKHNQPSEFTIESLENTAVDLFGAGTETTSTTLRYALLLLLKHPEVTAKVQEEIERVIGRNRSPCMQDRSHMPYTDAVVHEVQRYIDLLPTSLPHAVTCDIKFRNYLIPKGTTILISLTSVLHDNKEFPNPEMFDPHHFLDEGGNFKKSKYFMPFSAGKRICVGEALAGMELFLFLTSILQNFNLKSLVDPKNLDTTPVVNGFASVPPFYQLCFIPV
Sequence of Cytochrome P450 2C19 (P33261 whole entry): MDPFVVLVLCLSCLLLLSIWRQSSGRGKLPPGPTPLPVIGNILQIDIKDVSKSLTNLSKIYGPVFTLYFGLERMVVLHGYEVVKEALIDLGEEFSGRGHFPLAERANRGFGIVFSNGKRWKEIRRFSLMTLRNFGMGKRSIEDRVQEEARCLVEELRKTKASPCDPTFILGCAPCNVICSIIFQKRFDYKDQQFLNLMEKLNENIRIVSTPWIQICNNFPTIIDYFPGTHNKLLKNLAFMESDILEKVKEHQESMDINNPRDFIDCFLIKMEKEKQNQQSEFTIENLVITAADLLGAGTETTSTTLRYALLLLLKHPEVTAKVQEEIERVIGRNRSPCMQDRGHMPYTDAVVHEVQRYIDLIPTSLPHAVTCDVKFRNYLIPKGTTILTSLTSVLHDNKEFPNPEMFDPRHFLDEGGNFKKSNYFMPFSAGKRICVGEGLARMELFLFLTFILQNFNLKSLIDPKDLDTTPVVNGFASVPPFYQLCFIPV
Sequence of Luciferin 4-monooxygenase (P08659 whole entry): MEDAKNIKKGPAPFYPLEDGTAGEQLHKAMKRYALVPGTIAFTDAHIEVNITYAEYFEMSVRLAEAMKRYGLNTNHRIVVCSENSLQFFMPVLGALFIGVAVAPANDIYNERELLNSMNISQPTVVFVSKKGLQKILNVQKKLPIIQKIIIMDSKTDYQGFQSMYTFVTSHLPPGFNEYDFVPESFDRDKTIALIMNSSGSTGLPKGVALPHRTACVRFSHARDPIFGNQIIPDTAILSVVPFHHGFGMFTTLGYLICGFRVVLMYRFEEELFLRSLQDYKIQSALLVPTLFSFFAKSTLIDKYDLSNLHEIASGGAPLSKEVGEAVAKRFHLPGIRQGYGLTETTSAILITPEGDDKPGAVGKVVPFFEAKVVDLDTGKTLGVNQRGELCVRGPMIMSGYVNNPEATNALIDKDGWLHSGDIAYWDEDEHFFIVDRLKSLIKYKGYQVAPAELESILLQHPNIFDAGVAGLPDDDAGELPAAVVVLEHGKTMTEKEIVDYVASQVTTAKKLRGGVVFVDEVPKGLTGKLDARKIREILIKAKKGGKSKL
Sequence of Cytochrome P450 3A4 (P08684 whole entry): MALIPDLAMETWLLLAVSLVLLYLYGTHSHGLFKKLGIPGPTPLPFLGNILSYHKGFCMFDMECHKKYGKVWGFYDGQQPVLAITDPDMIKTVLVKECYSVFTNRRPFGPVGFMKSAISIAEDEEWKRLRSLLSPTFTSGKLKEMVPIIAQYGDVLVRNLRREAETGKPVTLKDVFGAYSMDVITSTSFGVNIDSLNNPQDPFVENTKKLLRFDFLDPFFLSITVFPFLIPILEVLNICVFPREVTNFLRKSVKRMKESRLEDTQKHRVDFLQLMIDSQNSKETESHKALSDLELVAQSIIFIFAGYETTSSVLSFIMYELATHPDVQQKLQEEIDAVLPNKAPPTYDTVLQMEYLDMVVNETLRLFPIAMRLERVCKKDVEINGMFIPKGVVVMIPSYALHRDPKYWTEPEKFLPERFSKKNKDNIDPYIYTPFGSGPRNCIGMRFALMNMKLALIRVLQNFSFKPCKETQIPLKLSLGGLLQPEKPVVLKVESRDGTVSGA

SMILES: O=C(Nc1ccc(N2CCOCC2)cc1)c1cn2ccccc2n1
AC50 (HEK293): 3.09 µM (active) | EC50 [1]: 3.25 µM (active) | EC50 (BJ [2]): 11.1 µM (active) | EC50 (BJ [3]): > 150 µM (inconclusive) | EC50 (BJ [4]): 12.3 µM (active) | EC50 [5]: 12.1 µM (active) | EC50 [6]: 4.45 µM (active)

AC50 (Cytochrome P450 2C9): inconclusive | AC50 (Cytochrome P450 2C19; read-out: AC50): 2 µM (inconclusive) | AC50 (Cytochrome P450 3A4): 7.08 µM (inconclusive) | AC50 (Cytochrome P450 1A2): 12.6 µM (inconclusive)
SMILES: CCc1ccccc1NC(=O)c1nnn(CC(=O)Nc2cccc(C)c2C)c1N

AC50 (Cytochrome P450 2C9): inconclusive | AC50 (Cytochrome P450 2C19): inconclusive | AC50 (Cytochrome P450 1A2): 31.6 µM (inconclusive)
SMILES: O=C(Nc1ncc(Cc2cccc(Cl)c2)s1)C1=NCCN1

SMILES: COc1ccc(CSc2nc(O)c3ccccc3n2)cc1F
IC50 (H9c2): > 79 µM (inactive)

SMILES: COc1ccc(N(C(=O)c2cccc([N+](=O)[O-])c2)S(=O)(=O)c2cccs2)cc1
IC50 (H9c2): > 79 µM (inactive)

SMILES: N#Cc1c(Oc2ccc3ccccc3c2)sc(C(=O)c2ccccc2)c1N
AC50 (HEK293): 26.7 µM (active)

SMILES: O=C1C2C3C=CC(CC3)C2C(=O)N1c1cccc(Br)c1 (stereo not drawn)
IC50 (H9c2): > 79 µM (inactive)
